Target: T1, human PKCθ full length enzyme (Homo sapiens, UniProt Q04759)
T1 construct: human PKCθ full length enzyme (Panvera Catalog No. P2996); purchased Panvera P2996
Experiment: PKCθ IMAP Assay
Assay type: biochemical
Settings: average value when one or more samples were tested; ATP 6 uM, PKCθ 1 nM
Description: The materials used include the following: human PKCθ full length enzyme (Panvera Catalog No. P2996); substrate peptide: 5FAM-[…]-OH (Molecular Devices, RP7032); ATP (Sigma Cat # A2383); DTT (Pierce, 20291); 5× kinase reaction buffer (Molecular Devices, R7209); 5× binding buffer A (Molecular Devices, R7282), 5× binding buffer B (Molecular Devices, R7209); IMAP Beads (Molecular Devices, R7284); and 384-well plates (Corning Costar, 3710).
The reaction buffer was prepared by diluting the 5× stock reaction buffer and adding DTT to obtain a concentration of 3.0 mM. The binding buffer was prepared by diluting the 5× binding buffer A. A master mix solution was prepared using a 90% dilution of the reaction buffer containing 2×ATP (12 uM) and 2× peptide ([…]). […] The final concentration of compound was 2× and 10% DMSO. DMSO was added to the rest of the master mix to increase the concentration to 10%. 10 ul of the master mix containing 10% DMSO was added to the rest of the wells on the plate except the 2nd column. 20 ul was transferred from the first column to the 2nd column. The compounds were serially diluted in 2:1 ratio starting from the 2nd column. A 2× (2 nM) PKCθ solution was made in the reaction buffer. 10 ul of the PKCθ solution was added to every well to achieve these final concentrations: PKCθ—1 nM; ATP—6 uM; peptide—100 nM; DMSO—5%. Samples were incubated for 25 minutes at room temperature. The binding reagent was prepared by diluting the beads in 1× binding buffer to 800:1. 50 ul of the binding reagent was added to every well and incubated for 20 minutes. FP was measured using Envision2100 (PerkinElmer Life Sciences). Wells with no ATPs and wells with no enzymes were used as controls.

T1 sequence (Q04759 whole entry): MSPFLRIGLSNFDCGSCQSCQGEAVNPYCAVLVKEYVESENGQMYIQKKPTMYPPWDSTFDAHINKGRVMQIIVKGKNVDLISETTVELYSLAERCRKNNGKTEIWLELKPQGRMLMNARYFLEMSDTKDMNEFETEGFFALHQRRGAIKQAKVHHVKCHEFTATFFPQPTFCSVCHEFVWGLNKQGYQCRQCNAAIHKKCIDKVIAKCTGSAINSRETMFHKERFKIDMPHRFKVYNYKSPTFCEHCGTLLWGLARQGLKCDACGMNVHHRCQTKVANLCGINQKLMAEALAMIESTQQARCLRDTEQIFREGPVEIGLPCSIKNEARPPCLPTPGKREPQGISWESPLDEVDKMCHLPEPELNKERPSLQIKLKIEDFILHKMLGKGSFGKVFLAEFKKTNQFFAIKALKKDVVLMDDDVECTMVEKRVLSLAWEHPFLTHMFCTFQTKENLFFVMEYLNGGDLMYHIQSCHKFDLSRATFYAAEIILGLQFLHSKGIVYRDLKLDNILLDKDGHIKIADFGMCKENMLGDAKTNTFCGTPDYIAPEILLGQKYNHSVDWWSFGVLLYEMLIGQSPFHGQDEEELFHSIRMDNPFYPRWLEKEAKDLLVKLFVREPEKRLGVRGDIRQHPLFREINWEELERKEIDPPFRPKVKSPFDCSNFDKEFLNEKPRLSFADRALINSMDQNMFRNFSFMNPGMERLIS

SMILES	IC50
Cc1c(Nc2c(C#N)cnc3sc(C(=O)N4CCOCC4)cc23)ccc2[nH]ccc12 [Compound 255, 4-[(4-methyl-1H-indol-5-yl)amino]-2-(morpholin-4-ylcarbonyl)thieno[2,3-b]pyridine-5-carbonitrile]	276 nM
Cc1c(Nc2c(C#N)cnc3sc(C(=O)N4CCN(C)CC4)cc23)ccc2[nH]ccc12 [Compound 256, 4-[(4-methyl-1H-indol-5-yl)amino]-2-[(4-methylpiperazin-1-yl)carbonyl]thieno[2,3-b]pyridine-5-carbonitrile]	334 nM
Cc1c(Nc2c(C#N)cnc3sc(C(=O)NCCc4ccccc4)cc23)ccc2[nH]ccc12 [Compound 260, 5-cyano-4-[(4-methyl-1H-indol-5-yl)amino]-N-(2-phenylethyl)thieno[2,3-b]pyridine-2-carboxamide]	187 nM
Cc1c(Nc2c(C#N)cnc3sc(C(=O)N(C)C)cc23)ccc2[nH]ccc12 [Compound 261, 5-cyano-N,N-dimethyl-4-[(4-methyl-1H-indol-5-yl)amino]thieno[2,3-b]pyridine-2-carboxamide]	222 nM
COCCNC(=O)c1cc2c(Nc3ccc4[nH]ccc4c3C)c(C#N)cnc2s1 [Compound 262, 5-cyano-N-(2-methoxyethyl)-4-[(4-methyl-1H-indol-5-yl)amino]thieno[2,3-b]pyridine-2-carboxamide]	92 nM
Cc1c(Nc2c(C#N)cnc3sc(C(=O)Nc4cccnc4)cc23)ccc2[nH]ccc12 [Compound 263, 5-cyano-4-[(4-methyl-1H-indol-5-yl)amino]-N-pyridin-3-ylthieno[2,3-b]pyridine-2-carboxamide]	71 nM
N#Cc1cnc2sc(C(=O)N3CCCC3)cc2c1Nc1cccc2[nH]ccc12 [Compound 264, 4-(1H-indol-4-ylamino)-2-(pyrrolidin-1-ylcarbonyl)thieno[2,3-b]pyridine-5-carbonitrile]	669 nM
Cc1c(Nc2c(C#N)cnc3sc(C(=O)N4CCNCC4)cc23)ccc2[nH]ccc12 [Compound 265, 4-[(4-methyl-1H-indol-5-yl)amino]-2-(piperazin-1-ylcarbonyl)thieno[2,3-b]pyridine-5-carbonitrile]	232 nM
Cc1c(Nc2c(C#N)cnc3sc(C(=O)NC4CCNCC4)cc23)ccc2[nH]ccc12 [Compound 266, 5-cyano-4-[(4-methyl-1H-indol-5-yl)amino]-N-piperidin-4-ylthieno[2,3-b]pyridine-2-carboxamide]	44 nM
Cc1c(Nc2c(C#N)cnc3sc(/C=C/CCN4CCN(C)CC4)cc23)ccc2[nH]ccc12 [Compound 272, 4-[(4-methyl-1H-indol-5-yl)amino]-2-[(1E)-4-(4-methylpiperazin-1-yl)but-1-en-1-yl]thieno[2,3-b]pyridine-5-carbonitrile]	45 nM
Cc1c(Nc2c(C#N)cnc3sc(/C=C/CN4CCOCC4)cc23)ccc2[nH]ccc12 [Compound 275, 4-[(4-methyl-1H-indol-5-yl)amino]-2-[(1E)-3-morpholin-4-ylprop-1-en-1-yl]thieno[2,3-b]pyridine-5-carbonitrile]	56 nM

Next, values leading:

IC50	SMILES
1100 nM	CS(=O)(=O)c1cccc(-c2cc3c(Nc4ccc5[nH]ccc5c4)c(C#N)cnc3s2)c1 [Compound 239, 4-(1H-indol-5-ylamino)-2-[3-(methylsulfonyl)phenyl]thieno[2,3-b]pyridine-5-carbonitrile]
6 nM	Cc1c(Nc2c(C#N)cnc3sc(-c4cccc(S(N)(=O)=O)c4)cc23)ccc2[nH]ccc12 [Compound 240, 3-{5-cyano-4-[(4-methyl-1H-indol-5-yl)amino]thieno[2,3-b]pyridin-2-yl}benzenesulfonamide]
13 nM	Cc1c(Nc2c(C#N)cnc3sc(-c4ccc(S(N)(=O)=O)cc4)cc23)ccc2[nH]ccc12 [Compound 241, 4-{5-cyano-4-[(4-methyl-1H-indol-5-yl)amino]thieno[2,3-b]pyridin-2-yl}benzenesulfonamide]
380 nM	N#Cc1cnc2sc(-c3ccc(S(N)(=O)=O)cc3)cc2c1Nc1ccc2[nH]ccc2c1 [Compound 242, 4-[5-cyano-4-(1H-indol-5-ylamino)thieno[2,3-b]pyridin-2-yl]benzenesulfonamide]
438 nM	COC(=O)c1cc2c(Nc3ccc4[nH]ccc4c3)c(C#N)cnc2s1 [Compound 246, methyl 5-cyano-4-(1H-indol-5-ylamino)thieno[2,3-b]pyridine-2-carboxylate]
1040 nM	N#Cc1cnc2sc(C(=O)N3CCCC3)cc2c1Nc1ccc2[nH]ccc2c1 [Compound 250, 4-(1H-indol-5-ylamino)-2-(pyrrolidin-1-ylcarbonyl)thieno[2,3-b]pyridine-5-carbonitrile]
1670 nM	N#Cc1cnc2sc(C(=O)Nc3cccnc3)cc2c1Nc1ccc2[nH]ccc2c1 [Compound 251, 5-cyano-4-(1H-indol-5-ylamino)-N-pyridin-3-ylthieno[2,3-b]pyridine-2-carboxamide]
959 nM	N#Cc1cnc2sc(C(=O)Nc3ccncc3)cc2c1Nc1ccc2[nH]ccc2c1 [Compound 252, 5-cyano-4-(1H-indol-5-ylamino)-N-pyridin-4-ylthieno[2,3-b]pyridine-2-carboxamide]
2280 nM	CN1CCN(C(=O)c2cc3c(Nc4ccc5[nH]ccc5c4)c(C#N)cnc3s2)CC1 [Compound 253, 4-(1H-indol-5-ylamino)-2-[(4-methylpiperazin-1-yl)carbonyl]thieno[2,3-b]pyridine-5-carbonitrile]
864 nM	N#Cc1cnc2sc(C(=O)NCCO)cc2c1Nc1ccc2[nH]ccc2c1 [Compound 254, 5-cyano-N-(2-hydroxyethyl)-4-(1H-indol-5-ylamino)thieno[2,3-b]pyridine-2-carboxamide]
25 nM	Cc1c(Nc2c(C#N)cnc3sc(C(=O)Nc4ccncc4)cc23)ccc2[nH]ccc12 [Compound 257, 5-cyano-4-[(4-methyl-1H-indol-5-yl)amino]-N-pyridin-4-ylthieno[2,3-b]pyridine-2-carboxamide]
126 nM	Cc1c(Nc2c(C#N)cnc3sc(C(=O)Nc4ccccc4)cc23)ccc2[nH]ccc12 [Compound 258, 5-cyano-4-[(4-methyl-1H-indol-5-yl)amino]-N-phenylthieno[2,3-b]pyridine-2-carboxamide]
155 nM	Cc1c(Nc2c(C#N)cnc3sc(C(=O)NCc4ccccc4)cc23)ccc2[nH]ccc12 [Compound 259, N-benzyl-5-cyano-4-[(4-methyl-1H-indol-5-yl)amino]thieno[2,3-b]pyridine-2-carboxamide]
1250 nM	N#Cc1cnc2sc(CN3CCc4ccccc4C3)cc2c1Nc1ccc2[nH]ccc2c1 [Compound 268, 2-(3,4-dihydroisoquinolin-2(1H)-ylmethyl)-4-(1H-indol-5-ylamino)thieno[2,3-b]pyridine-5-carbonitrile]
4030 nM	N#Cc1cnc2sc(CN3CCN(c4ccccc4)CC3)cc2c1Nc1ccc2[nH]ccc2c1 [Compound 269, 4-(1H-indol-5-ylamino)-2-[(4-phenylpiperazin-1-yl)methyl]thieno[2,3-b]pyridine-5-carbonitrile]
201 nM	C=C/C=C/c1cc2c(Nc3ccc4[nH]ccc4c3)c(C#N)cnc2s1 [Compound 270, 2-[(1E)-buta-1,3-dien-1-yl]-4-(1H-indol-5-ylamino)thieno[2,3-b]pyridine-5-carbonitrile]

Reference: patent US20070082880A1 (priority 2005, published 2007)
